According to patent publication US6682718B1, “Remedies for periodontosis” (Yamanouchi Pharmaceutical Co., Ltd., priority 1999, dated 2004):
“Also recorded” adds a separate entry of the source. Like-named read-outs stand apart in the source and are kept apart here.

Columns and labels:
[1] = Intra-alveolar bone and intra-rib drug concentration, canine periodontitis model (Example 1); conditions: for Intra-rib drug concentration: 13 weeks after final administration; for concentration at 13 weeks after final administration: female, beagle, dog, other: alveolar mucosa injection
Source text: A total of 30 animals of female beagle dogs (1 to 2 years, body weight at the time of grouping 7.9 to 13.7 kg) were fed with a soft diet prepared by impregnating Gains Packen (AGF) with water from the previous day of ligation and used in this study. Under anesthesia with xylazine hydrochloride (Bayer) and pentobarbital, gingiva between second premolar (hereinafter, P2)/third premolar (hereinafter, P3), between P3/fourth premolar (hereinafter, P4) and between P4/first molar (hereinafter, M1) of right and left mandibles were incised with a surgical knife, and periodontal pockets were prepared around P3 and P4 using a periosteal elevator. An experimental periodontitis was induced by placing double-ligation of silk threads (surgical thread; Nescosuture (3-0), Morita) around the cervices of P3 and P4. In this case, reference points were prepared on the buccal side and lingual side of the crown of P4 at the height of gingival margin using dental drill. […] 1) Control group: physiological saline, 2) incadronate […] group, 3) incadronate 1.5 μg/site group, 4) incadronate 5.0 μg/site group and 5) incadronate 15 μg/site group.
The administration was started just after the surgical operation in each group. Incadronate (an injection, mfd. by Yamanouchi Pharmaceutical Co., Ltd.) was prepared and diluted with saline such that the administration liquid volume became 150 μl/site. The administration was carried out a total of three times, namely just after the ligation and 1 and 2 weeks after the ligation. The administration was carried out by the alveolar mucosa injection method using a 27 G injection needle attached to a glass micro-syringe. The injection needle was inserted horizontally to the alveolar mucosa close to the boundary between the alveolar mucosa and gingiva (muco-gingival junction) around the ligated tooth, and 150 μl of a drug solution was injected between periosteum of the alveolar bone and alveolar mucosa. The administration was carried out on both of the buccal and lingual side (a total of 4 sites per 1 mandible, 600 μl in total). Each animal was sacrificed by exsanguination 13 weeks after the final administration, and the mandibles including P3 and P4 of right and left side and the ribs were harvested and submitted to the intra-bone drug concentration measurement.
Root of the left fourth premolar was extracted using cutting pliers, the whole mandible containing jaw bone and alveolar bone was divided up and down into two, and the upper ½ was considered as the alveolar bone. […] Incadronate was extracted from these samples using a calcium precipitation method and its intra-bone drug concentration was measured by an HPLC method.

[2] = tested on: experimental periodontitis induced by silk thread ligation of P3 and P4; assay: Canine periodontitis model study, topical alveolar mucosa injection (Example 1): alveolar bone loss and clinical scores; type: in vivo, beagle dogs
Source text: The standardized X-ray photographing method (J. Periodontol., 33, 164-171 (1962)) was employed, in which irradiation direction of X-ray to a subject and position of the film are always kept constant so that X-ray photographs of the same region of the same individual can be obtained repeatedly always under the same conditions. This time, in order to evaluate alveolar bone loss around P3 and P4 of right and left mandibles, a cap was formed between incisor tooth and M1 of both mandibles using an acrylic resin, and a fixing device was prepared by combining this cap with a film holder.
Each animal was anesthetized with xylazine hydrochloride and ketamine hydrochloride (Ketalar, Sankyo), and a dental film (Ultra Speed DF58, Kodak) was attached to the film holder on the fixing device to photograph X-ray by a dental X-ray photographing apparatus (Super Max 70, type HD-1, Morita Seisakusho).
That is, an X-ray film was measured under a stereoscopic microscope (objective×1, eyepiece×10), an OHP sheet was put on the X-ray film, and line a, line b and line c were marked on the OHP sheet using a ceramic knife, thereby obtaining respective two points b and b′ and c and c′ on line b and line c. Distances between the b-b′ and c-c′ were respectively defined as the distances from the reference points (b and c points) to the alveolar bone crest. The length of alveolar bone loss was expressed by averaging values obtained by subtracting the sum of b-b′ and c-c′ distances in each individual at the time of each week from the sum of b-b′ and c-c′ distances at the time of ligation.
Measurement of the depth of periodontal pockets was carried out by a four point measuring method in accordance with J. Clin. Periodontol., 4, 173-190 (1997)).
Regarding the length of gingival recession, the distance from the reference point on the tooth crown prepared at the time of ligation to the gingival margin was measured on two regions, the buccal and lingual side, of P4 at the time of each week in each individual, and expressed as the average value.
Attachment level is an index for measuring position of the bottom of gingival sulcus (pocket bottom), and was expressed as the distance from the pocket bottom to the reference point on the tooth crown. That is, a value of the depth of pocket plus the length of gingival recession was used as the attachment level.
Regions of inflammation and degree of the symptoms of gingiva were evaluated in accordance with J. Periodontol., 38, 602-610 (1967)).

[3] = Alveolar bone drug concentration after oral administration in canine periodontitis model; type: in vivo; conditions: dog, oral 1.0 mg/kg, at completion of 26 weeks administration
Description: Thereafter, it was confirmed that the drug concentration in the alveolar bone is about 4 μg/g in that case.
Intra-alveolar bone concentration of incadronate was 5.67 and 4.28 μg/g bone. This was similar to the intra-alveolar bone drug concentration of about 4 μg/g at the time of the completion of 26 weeks oral administration of 1.0 mg/kg of incadronate (J. Periodont. Res., 33, 196-204 (1998)).

[4] = tested on: canine periodontitis model; conditions: oral administration; cited from earlier work
[5] = Alveolar bone drug concentration in rat tooth movement model; type: in vivo; conditions: 10 μg/50 μl/kg group
[6] = tested on: tooth movement model (tooth relapse); assay: Tooth movement model in rat, intra-gingival administration
[7] = tested on: experimental periodontitis (canine periodontitis model); assay: High dose topical administration study in canine periodontitis model (Comparative Example 1): alveolar bone loss and clinical scores; type: in vivo, beagle dog; conditions: 50 and 150 μg/site groups vs control, 3 topical injections
Description: (§1) Using 26 animals of beagle dog (3 to 6 years, body weight at the time of grouping 6.1 to 12.9 kg), topical administration study in a canine periodontitis model were carried out on a), control group: physiological saline, b) incadronate […] group and c) incadronate 150 μg/site group.

[8] = tested on: lamina propria mucosae of the administered sites; assay: Local irritation to the lamina propria mucosae of the administered sites (Comparative Example 1); type: in vivo, beagle dog
Description: as §1

[9] = tested on: hamster periodontitis model; conditions: subcutaneous administration; cited from earlier work
[10] = Intra-alveolar bone drug concentration, high dose topical study (Comparative Example 1); type: in vivo; conditions: beagle, dog, read-out: Intra-alveolar bone concentration of incadronate
Description: as §1

[11] = tested on: rat molar experimental tooth movement models; conditions: cited from earlier work
dog periodontitis model = conditions: oral administration; cited from earlier work
[12] = tested on: monkey periodontitis model; conditions: oral administration; cited from earlier work

**Q.** What does the source list for `O.O=P([O-])([O-])C(NC1CCCCCC1)P(=O)(O)O.[Na+].[Na+]` [incadronate, disodium cycloheptylaminomethylenediphosphonate monohydrate]?
**A.** intra-rib concentration as fraction of the intra-alveolar bone concentration ([1]; 5 to 15 μg/site-administered groups): 1/10; Intra-rib drug concentration ([1]; dose 0.5 μg/site): N.D. (N.D. indicates detection limit (0.025 μg/g) or less); Intra-rib drug concentration ([1]; dose 1.5 μg/site): N.D. (N.D. indicates detection limit (0.025 μg/g) or less); concentration at 13 weeks after final administration ([1]; alveolar bone, 0.5 μg/site): 58 ± 8 ng/g; concentration at 13 weeks after final administration ([1]; alveolar bone, 1.5 μg/site): 174 ± 11 ng/g; concentration at 13 weeks after final administration ([1]; alveolar bone, 5 μg/site): 356 ± 70 ng/g; concentration at 13 weeks after final administration ([1]; alveolar bone, 15 μg/site): 1040 ± 313 ng/g; concentration at 13 weeks after final administration ([1]; rib (epiphyseal region), 5 μg/site): 33 ± 3 ng/g; concentration at 13 weeks after final administration ([1]; rib (epiphyseal region), 15 μg/site): 91 ± 16 ng/g; acceleration of pocket depth ([2]; 2 and 4 weeks after the ligation, dose of 1.5 μg/site or more): significantly inhibited; exacerbation of gingival index ([2]; after 2 weeks of the ligation, dose of 1.5 μg/site or more): significantly inhibited; reduction of attachment level ([2]; after 4 and 15 weeks of the ligation, dose of 1.5): significantly inhibited; dose at which alveolar bone loss inhibitory action was most potent ([2]; doses 0.5, 1.5, 5.0, 15 μg/site tested): 5 μg/site; reduction of attachment level ([2]; in and after 2 weeks of the ligation, dose of 5 or more): significantly inhibited; acceleration of gingival recession ([2]; in and after 4 weeks of the ligation, dose of 5 or more): significantly inhibited; aggravation of the clinical scores of periodontitis ([2]; incadronate-treated groups): inhibited; alveolar bone loss (standardized X-ray) ([2]; incadronate-treated groups 0.5-15 μg/site vs control, after ligation): inhibited; acceleration of gingival recession ([2]; only after 15 weeks of the ligation, dose of 1.5): significantly inhibited; concentration at 26 weeks [3]: ~4000 ng/g; alveolar bone loss and attachment level [4]: alveolar bone loss inhibitory and attachment level improving actions; alveolar bone resorption inhibitory action [4]: shows an alveolar bone resorption inhibitory action dose-dependently; suitable dose [4]: 1.0 mg/kg; average concentration in the alveolar bone [5]: 0.6 µg/g; effect on tooth relapse ([6]; 10 μg/50 μl/kg intra-gingival (200 μg/ml)): no effect; effect on tooth relapse ([6]; 100 μg/50 μl/kg intra-gingival (2,000 μg/ml)): good tooth relapse inhibitory action; local irritation in gross observation ([6]; 10 or 100 μg/50 μl/kg intra-gingival): not observed; clinical scores [7]: no significant difference; alveolar bone loss inhibitory action ([7]; monohydrate): unable to exert alveolar bone resorption inhibitory action; also recorded: no significant difference; local irritation to the lamina propria mucosae of the administered sites ([8]; 50 μg/site group): slight mononuclear cell infiltration was also observed partly; local irritation to the lamina propria mucosae of the administered sites ([8]; 150 μg/site group, one week after the final administration, monohydrate): considerable local irritation was observed; also recorded: bleeding, fibrin precipitation, inflammatory cell infiltration, salivary gland and muscular tissue damage were observed in all cases; alveolar bone loss [9]: alveolar bone loss inhibitory action; concentration at 8 weeks after final administration ([10]; 50 μg/site group (first value)): 5670 ng/g; concentration at 8 weeks after final administration ([10]; 150 μg/site group): 4280 ng/g

**Q.** Which “effect on experimental tooth movement” value ([11]; topical administration to sub-mucasa on palate-side) does the source give for `NCCC(O)(P(=O)(O)O)P(=O)(O)O` [pamidronate] here?
**A.** effective

**Q.** For `O=P(O)(O)C(O)(Cc1cccnc1)P(=O)(O)O` [risedronate], which “effect on experimental tooth movement” value ([11]; topical administration to the sub-periosteum area adjacent to the first molar) is on record?
**A.** effective

**Q.** What does the source list for `NCCCC(O)(P(=O)(O)O)P(=O)(O)O` [alendronate]?
**A.** alveolar bone destruction (dog periodontitis model): inhibited alveolar bone destruction; alveolar bone destruction [12]: inhibited alveolar bone destruction
